According to ChEMBL document CHEMBL1201862, “PubChem BioAssay data set” (2004):
Activity calls are given as the source filed them.

Experiments:
[1] = target: Glycogen synthase kinase-3 beta (Homo sapiens, UniProt P49841); assay type: functional;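 further: value comes from a broad kinome profiling panel, with GSK3B as the panel member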
[2] = target: Interleukin-1 receptor-associated kinase 4 (Homo sapiens, UniProt Q9NWZ3); assay type: functional
[3] = target: Cell division cycle 7-related protein kinase (Homo sapiens, UniProt O00311); assay type: functional;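 further: value obtained from a kinome-wide kinase panel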
Sequence of Cell division cycle 7-related protein kinase (O00311 whole entry): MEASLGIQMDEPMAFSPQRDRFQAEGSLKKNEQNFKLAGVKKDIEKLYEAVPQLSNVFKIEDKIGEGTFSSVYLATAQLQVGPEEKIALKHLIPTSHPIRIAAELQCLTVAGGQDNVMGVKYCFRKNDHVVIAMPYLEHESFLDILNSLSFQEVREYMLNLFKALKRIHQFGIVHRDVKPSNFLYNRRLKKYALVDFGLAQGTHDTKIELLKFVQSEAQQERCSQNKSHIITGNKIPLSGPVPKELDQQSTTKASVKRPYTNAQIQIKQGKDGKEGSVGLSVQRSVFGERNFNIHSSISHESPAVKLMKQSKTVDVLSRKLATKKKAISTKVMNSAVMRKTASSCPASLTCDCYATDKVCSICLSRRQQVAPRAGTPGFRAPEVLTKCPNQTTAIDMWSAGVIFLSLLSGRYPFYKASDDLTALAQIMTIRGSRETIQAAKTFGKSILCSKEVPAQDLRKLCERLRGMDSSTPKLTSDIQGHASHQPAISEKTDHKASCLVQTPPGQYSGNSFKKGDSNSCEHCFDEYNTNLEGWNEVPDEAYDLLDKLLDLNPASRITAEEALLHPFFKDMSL

[4] = target: Serine/threonine-protein kinase pim-1 (Homo sapiens, UniProt P11309); assay type: functional
Sequence of Serine/threonine-protein kinase pim-1 (P11309 whole entry): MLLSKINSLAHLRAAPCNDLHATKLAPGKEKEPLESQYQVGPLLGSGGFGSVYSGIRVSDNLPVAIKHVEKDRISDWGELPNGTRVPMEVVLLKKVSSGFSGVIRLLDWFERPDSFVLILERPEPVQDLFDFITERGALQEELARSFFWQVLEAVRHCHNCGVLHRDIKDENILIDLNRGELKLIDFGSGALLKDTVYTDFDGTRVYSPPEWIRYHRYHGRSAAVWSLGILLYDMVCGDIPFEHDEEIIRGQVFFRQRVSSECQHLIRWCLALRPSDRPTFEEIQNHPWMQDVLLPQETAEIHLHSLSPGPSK

[5] = target: Homeodomain-interacting protein kinase 2 (Homo sapiens, UniProt Q9H2X6); assay type: functional;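 further: measured within a kinome-wide kinase profiling panel, HIPK2 being one panel member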
Sequence of Homeodomain-interacting protein kinase 2 (Q9H2X6 whole entry): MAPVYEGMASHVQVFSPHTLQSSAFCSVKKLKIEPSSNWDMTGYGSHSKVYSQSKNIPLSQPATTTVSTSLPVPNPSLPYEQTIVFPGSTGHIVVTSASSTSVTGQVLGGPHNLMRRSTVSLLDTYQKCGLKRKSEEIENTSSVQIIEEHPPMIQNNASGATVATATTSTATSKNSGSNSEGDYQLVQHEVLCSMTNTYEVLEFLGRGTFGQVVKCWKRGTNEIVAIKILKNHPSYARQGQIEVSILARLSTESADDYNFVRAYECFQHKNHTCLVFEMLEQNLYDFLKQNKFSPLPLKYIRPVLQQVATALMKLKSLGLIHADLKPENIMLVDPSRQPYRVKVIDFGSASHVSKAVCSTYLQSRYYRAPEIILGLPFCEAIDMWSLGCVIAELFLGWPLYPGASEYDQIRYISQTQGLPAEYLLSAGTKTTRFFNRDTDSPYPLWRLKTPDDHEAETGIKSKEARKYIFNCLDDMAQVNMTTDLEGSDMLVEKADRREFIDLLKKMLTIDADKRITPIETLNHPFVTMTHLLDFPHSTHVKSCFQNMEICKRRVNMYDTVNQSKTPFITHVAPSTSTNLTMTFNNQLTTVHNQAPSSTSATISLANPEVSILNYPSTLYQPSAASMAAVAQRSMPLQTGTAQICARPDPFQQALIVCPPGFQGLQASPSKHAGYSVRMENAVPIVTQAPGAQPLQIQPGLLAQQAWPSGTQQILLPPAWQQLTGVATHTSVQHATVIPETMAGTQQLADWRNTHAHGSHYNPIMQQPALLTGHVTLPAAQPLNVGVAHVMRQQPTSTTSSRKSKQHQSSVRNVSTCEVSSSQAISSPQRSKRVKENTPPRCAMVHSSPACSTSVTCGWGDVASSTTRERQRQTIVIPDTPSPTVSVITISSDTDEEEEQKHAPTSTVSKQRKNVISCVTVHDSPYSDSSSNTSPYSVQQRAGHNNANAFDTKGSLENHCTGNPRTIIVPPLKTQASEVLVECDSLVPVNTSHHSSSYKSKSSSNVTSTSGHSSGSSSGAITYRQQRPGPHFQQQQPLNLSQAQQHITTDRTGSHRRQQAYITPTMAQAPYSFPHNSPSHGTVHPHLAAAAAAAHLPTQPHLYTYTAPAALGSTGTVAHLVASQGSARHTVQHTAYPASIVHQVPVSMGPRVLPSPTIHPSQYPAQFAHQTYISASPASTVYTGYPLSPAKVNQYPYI

[6] = target: cAMP-dependent protein kinase catalytic subunit alpha (Homo sapiens, UniProt P17612); assay type: functional
[7] = target: Dual specificity protein kinase CLK4 (Homo sapiens, UniProt Q9HAZ1); assay type: functional
[8] = target: T1, High affinity choline transporter 1 (Homo sapiens, UniProt Q9GZV3); experiment: human choline transporter blockers, potency – cell-based, 5-point CRC, membrane potential dye, dose response (AID 504840); assay type: functional
T1 sequence (Q9GZV3 whole entry): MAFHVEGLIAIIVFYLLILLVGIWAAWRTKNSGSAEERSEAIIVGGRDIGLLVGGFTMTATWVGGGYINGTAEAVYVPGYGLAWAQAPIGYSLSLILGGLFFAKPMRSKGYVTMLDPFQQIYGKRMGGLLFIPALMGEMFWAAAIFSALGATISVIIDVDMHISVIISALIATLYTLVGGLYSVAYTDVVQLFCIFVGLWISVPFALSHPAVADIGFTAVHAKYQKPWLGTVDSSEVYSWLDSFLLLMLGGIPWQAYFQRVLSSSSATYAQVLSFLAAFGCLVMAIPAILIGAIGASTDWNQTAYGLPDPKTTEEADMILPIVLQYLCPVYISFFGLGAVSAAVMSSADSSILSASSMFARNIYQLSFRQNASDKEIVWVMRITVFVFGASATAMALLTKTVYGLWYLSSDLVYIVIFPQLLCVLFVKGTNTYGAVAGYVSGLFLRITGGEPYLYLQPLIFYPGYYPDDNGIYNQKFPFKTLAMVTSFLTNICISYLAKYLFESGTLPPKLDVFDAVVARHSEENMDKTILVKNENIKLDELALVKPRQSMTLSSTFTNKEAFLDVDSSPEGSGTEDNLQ

[9] = target: T1, High affinity choline transporter 1; experiment: human choline transporter blockers, potency – cell-based, 10-point CRC, membrane potential dye, dose response (AID 588401); assay type: functional;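 further: membrane potential dye fluorescence of choline-evoked depolarization via CHT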
Orexin receptor type 2 [10] = target: T2, Orexin receptor type 2 (Homo sapiens, UniProt O43614); experiment: Counterscreen assay for antagonists of the orexin 1 receptor (OX1R; HCRTR1): Homogeneous Time Resolved Fluorescence (HTRF)-based cell-based dose response assay for antagonists of the orexin 2 receptor (OX2R; HCRTR2), run by assay provider.; assay type: functional
T2 sequence (O43614 whole entry): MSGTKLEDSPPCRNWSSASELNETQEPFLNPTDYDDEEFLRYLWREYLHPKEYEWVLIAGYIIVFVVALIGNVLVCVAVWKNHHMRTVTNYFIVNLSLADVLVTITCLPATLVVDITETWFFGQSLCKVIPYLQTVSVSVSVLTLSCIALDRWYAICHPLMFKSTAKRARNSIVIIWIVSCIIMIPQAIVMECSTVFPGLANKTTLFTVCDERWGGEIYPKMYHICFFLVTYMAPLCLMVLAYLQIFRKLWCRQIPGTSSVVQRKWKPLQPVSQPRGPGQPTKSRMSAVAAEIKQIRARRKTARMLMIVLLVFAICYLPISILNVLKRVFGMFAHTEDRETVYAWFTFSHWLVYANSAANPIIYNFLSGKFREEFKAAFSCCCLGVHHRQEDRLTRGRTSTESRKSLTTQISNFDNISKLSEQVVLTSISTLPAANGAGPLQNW

[11] = target: T3, Orexin/Hypocretin receptor type 1 (Homo sapiens, UniProt O43613); experiment: Homogeneous Time Resolved Fluorescence (HTRF)-based cell-based high throughput dose response assay for antagonists of the orexin 1 receptor (OX1R; HCRTR1). [Related pubchem assays (depositor defined):AID434989, AID435008, AID463079, AID485270, AID492963, AID492964, AID492965, AID493232, AID504717, AID504718]; assay type: functional
T3 sequence (O43613 whole entry): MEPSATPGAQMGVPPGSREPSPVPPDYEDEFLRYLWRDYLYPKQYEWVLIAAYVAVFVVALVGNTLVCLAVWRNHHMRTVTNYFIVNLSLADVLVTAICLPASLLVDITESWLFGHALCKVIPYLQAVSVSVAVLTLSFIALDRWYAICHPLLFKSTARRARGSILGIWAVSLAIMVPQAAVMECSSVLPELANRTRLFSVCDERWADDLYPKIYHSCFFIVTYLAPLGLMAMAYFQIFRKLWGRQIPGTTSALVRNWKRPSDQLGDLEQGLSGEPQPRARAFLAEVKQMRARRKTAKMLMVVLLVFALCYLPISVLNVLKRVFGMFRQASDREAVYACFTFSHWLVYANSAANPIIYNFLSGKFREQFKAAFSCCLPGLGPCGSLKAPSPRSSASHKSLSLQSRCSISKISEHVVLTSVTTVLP

[12] = (§1) Counterscreen for antagonists of the orexin 1 receptor (OX1R; HCRTR1): Fluorescence-based cell-based high throughput dose response assay to identify antagonists of the parental CHO cell line. [Related pubchem assays (depositor defined):AID434989, AID435008, AID463079, AID485270, AID492963, AID492964, AID492965, AID493232, AID504699, AID504701]; assay type: functional
[13] = target: T3, Orexin/Hypocretin receptor type 1; experiment: Fluorescence-based cell-based high throughput dose response assay for antagonists of the orexin 1 receptor (OX1R; HCRTR1). [Related pubchem assays (depositor defined):AID434989, AID435008, AID463079, AID485270, AID492963, AID492964, AID492965, AID493232, AID504717, AID504718]; assay type: functional
CHO-K1 = experiment: as §1, with “Homogeneous time resolved fluorescence (HTRF)-based” for “Fluorescence-based”, “cell-based” for “cell-based high throughput”, “CHO-K1” for “CHO”; assay type: functional; conditions: Cricetulus griseus;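 further: potency for inhibition of ATP-stimulated IP1 production as antagonists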
Orexin receptor type 2 [14] = target: T2, Orexin receptor type 2; experiment: Counterscreen assay for antagonists of the orexin 1 receptor (OX1R; HCRTR1): Fluorescence-based cell-based dose response assay for antagonists of the orexin 2 receptor (OX2R; HCRTR2), run by assay provider.; assay type: functional
[15] = target: T4, Hepatocyte nuclear factor 4-alpha (Homo sapiens, UniProt P41235); assay type: functional, cell-based;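 further: biochemical luminescence-based dose-response counterscreen measuring inhibition of HNF4 dimerization, run alongside a screen for blockers of ABHD5–perilipin-5 interaction; split luciferase complementation of HNF4 fusion proteins in cell lysate measuring dimerization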
T4 sequence (P41235 whole entry): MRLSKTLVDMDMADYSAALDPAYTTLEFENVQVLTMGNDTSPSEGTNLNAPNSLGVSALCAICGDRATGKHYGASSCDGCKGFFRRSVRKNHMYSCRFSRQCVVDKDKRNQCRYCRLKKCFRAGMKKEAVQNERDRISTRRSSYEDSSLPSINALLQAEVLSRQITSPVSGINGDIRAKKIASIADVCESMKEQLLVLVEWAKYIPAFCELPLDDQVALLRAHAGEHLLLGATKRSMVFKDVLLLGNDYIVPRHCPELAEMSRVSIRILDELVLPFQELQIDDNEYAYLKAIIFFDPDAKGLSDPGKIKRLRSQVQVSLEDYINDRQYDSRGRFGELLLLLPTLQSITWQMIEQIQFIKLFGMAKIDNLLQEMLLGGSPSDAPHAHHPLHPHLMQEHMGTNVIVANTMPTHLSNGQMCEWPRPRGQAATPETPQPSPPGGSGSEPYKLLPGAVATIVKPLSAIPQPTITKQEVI

[16] = reduced cellular PGC1a acetyl-lysine signal – cell-based, cherry-picked samples, dose response (AID 720514); assay type: functional;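 further: potency may reflect raised or lowered acetylation signal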
[17] = NIH3T3 cell viability loss – ATP luminescence, mouse fibroblasts, counter-screen, dose response (AID 2010); assay type: functional, cell-based;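 further: cells exposed to compound for about 90 hours before reading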
Genome polyprotein = Genome polyprotein (dengue virus type 2, UniProt P29990); experiment: flavivirus cap methylation enzyme inhibition – biochemical, confirmation dose response, primary screen (AID 588689); assay type: functional
Sequence of Genome polyprotein (P29990 2492-3391 limits assumed): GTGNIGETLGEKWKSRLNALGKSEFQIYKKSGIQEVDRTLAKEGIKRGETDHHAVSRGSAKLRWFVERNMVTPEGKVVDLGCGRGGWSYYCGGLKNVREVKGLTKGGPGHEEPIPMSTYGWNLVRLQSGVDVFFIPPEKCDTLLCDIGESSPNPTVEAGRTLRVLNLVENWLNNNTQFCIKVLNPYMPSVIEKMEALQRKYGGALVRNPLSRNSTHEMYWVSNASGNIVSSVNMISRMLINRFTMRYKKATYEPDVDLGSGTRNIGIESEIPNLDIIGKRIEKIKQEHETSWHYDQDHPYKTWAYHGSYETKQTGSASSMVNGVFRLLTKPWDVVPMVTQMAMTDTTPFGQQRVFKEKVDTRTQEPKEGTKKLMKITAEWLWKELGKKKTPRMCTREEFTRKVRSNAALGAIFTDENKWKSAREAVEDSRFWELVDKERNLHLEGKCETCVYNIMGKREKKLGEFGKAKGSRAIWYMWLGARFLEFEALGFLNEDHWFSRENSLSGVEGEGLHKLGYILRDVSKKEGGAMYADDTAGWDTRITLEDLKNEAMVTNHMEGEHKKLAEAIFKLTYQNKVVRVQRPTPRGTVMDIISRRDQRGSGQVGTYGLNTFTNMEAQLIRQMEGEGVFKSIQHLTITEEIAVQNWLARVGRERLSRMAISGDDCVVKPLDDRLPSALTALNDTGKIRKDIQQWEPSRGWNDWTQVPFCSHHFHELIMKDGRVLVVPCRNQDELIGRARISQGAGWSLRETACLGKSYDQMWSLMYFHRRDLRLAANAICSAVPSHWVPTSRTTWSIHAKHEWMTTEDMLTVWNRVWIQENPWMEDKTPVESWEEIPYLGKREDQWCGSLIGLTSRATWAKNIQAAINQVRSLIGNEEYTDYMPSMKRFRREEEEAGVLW

[18] = target: T5, Short transient receptor potential channel 4 (Mus musculus, UniProt Q9QUQ5); experiment: block of DAMGO-driven TRPC4 calcium entry – cell-based, HEK293 TRPC4/mu-opioid, Fluo-4 calcium, dose response (AID 434942); assay type: functional;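 further: potency of inhibitors blocking the TRPC4 calcium response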
T5 sequence (Q9QUQ5 whole entry): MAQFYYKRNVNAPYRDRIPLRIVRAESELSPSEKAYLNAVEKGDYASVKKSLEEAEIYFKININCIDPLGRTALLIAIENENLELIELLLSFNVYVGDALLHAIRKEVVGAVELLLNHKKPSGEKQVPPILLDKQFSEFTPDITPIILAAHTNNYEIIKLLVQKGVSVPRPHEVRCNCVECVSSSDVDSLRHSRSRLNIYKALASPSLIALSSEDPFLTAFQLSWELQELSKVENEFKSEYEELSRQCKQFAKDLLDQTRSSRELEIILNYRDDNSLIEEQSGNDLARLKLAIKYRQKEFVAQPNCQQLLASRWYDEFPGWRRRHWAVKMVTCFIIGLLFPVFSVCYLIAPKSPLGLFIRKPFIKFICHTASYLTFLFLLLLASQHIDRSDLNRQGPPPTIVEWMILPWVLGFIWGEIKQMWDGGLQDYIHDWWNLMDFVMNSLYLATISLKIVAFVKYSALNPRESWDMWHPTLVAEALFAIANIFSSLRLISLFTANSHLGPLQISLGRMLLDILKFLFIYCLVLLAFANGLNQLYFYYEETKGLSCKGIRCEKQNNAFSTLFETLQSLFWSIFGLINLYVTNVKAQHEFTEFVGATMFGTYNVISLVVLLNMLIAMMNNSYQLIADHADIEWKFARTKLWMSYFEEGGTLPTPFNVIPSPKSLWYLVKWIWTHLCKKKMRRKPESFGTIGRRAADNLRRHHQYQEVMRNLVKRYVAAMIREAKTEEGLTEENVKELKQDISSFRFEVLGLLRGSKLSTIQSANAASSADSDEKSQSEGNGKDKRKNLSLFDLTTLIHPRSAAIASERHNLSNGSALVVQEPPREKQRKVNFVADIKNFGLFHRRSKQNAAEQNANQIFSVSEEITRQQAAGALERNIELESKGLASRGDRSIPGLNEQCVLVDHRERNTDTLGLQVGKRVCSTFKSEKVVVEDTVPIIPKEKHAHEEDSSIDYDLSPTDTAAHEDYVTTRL

[19] = Trypanosoma cruzi growth suppression in host cells – NIH3T3 host cells, beta-gal luminescence, confirmation (AID 2044); assay type: functional, cell-based;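 further: intracellular parasites grown in NIH/3T3 mouse fibroblasts as host cells; luminescent beta-galactosidase reporter signal from transgenic T. cruzi replicating inside host cells; inhibitors lower the luminescence signal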
INS1 = experiment: INS-1E survival protection against cytokine death – cell-based, luminescence, retest, dose response (AID 449756); assay type: functional; conditions: Rattus norvegicus;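 further: cell death triggered by IL-1 beta plus TNF-alpha plus IFN-gamma mixture; protective hits raise ATP signal compared with cytokine alone wells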
Large T antigen = Large T antigen (Simian virus 40, UniProt P03070); assay type: functional, Betapolyomavirus macacae;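 further: Confirmatory-stage PubChem screen for compounds that inhibit SV40 T antigen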
Sequence of Large T antigen (P03070 whole entry): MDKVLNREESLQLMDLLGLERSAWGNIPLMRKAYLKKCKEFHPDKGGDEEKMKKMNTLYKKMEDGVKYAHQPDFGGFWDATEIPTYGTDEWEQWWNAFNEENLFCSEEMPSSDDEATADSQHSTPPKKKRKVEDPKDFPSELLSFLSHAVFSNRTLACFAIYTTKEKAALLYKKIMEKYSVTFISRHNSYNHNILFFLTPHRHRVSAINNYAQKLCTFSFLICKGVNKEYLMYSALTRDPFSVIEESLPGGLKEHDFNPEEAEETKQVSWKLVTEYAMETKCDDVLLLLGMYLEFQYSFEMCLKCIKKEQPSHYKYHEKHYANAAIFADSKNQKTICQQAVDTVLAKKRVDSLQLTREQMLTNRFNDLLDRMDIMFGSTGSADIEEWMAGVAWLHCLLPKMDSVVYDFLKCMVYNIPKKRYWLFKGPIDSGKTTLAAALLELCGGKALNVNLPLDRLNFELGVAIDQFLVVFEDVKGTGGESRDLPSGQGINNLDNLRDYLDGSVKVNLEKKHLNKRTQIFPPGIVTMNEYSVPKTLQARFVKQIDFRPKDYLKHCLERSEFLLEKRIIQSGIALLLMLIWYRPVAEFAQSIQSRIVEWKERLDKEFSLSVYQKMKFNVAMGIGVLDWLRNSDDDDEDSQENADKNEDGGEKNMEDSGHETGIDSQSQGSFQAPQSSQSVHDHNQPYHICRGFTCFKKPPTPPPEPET

Vero = experiment: viability of Vero cells under compound – cytotoxicity control for flavivirus capping enzyme inhibitors (AID 588742); assay type: functional; conditions: Chlorocebus sabaeus
[20] = target: T6, Probable nicotinate-nucleotide adenylyltransferase (Staphylococcus aureus (strain N315), UniProt P65502); assay type: functional, Staphylococcus aureus subsp. aureus N315; conditions: read-out: IC50_Mean;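 on IC50 Mean: confirmatory dose-response retesting of NadD inhibitor hits first found in an ultra-high-throughput screen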
T6 sequence (P65502 whole entry): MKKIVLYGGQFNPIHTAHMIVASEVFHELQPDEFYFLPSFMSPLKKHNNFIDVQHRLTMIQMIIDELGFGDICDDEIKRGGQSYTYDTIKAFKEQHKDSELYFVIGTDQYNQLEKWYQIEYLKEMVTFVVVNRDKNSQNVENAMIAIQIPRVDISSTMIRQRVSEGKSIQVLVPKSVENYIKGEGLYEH

[21] = target: T6, Probable nicotinate-nucleotide adenylyltransferase; assay type: functional, Staphylococcus aureus subsp. aureus N315
[22] = microbe, parasite or virus in culture; assay type: functional; conditions: Mycobacterium tuberculosis
[23] = NIH-3T3 fibroblast cytotoxicity, dose response, cytotoxicity control, cell-based, fluorescence, Alamar Blue, secondary assay (AID 2327); assay type: functional;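 further: NIH-3T3 mouse fibroblasts cultured with fluconazole at 8 µg/mL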
[24] = fluconazole-exposed Candida albicans growth modulators – fluorescence, retest, confirmation (AID 2467); assay type: functional, cell-based

Sequence of Glycogen synthase kinase-3 beta (P49841 whole entry): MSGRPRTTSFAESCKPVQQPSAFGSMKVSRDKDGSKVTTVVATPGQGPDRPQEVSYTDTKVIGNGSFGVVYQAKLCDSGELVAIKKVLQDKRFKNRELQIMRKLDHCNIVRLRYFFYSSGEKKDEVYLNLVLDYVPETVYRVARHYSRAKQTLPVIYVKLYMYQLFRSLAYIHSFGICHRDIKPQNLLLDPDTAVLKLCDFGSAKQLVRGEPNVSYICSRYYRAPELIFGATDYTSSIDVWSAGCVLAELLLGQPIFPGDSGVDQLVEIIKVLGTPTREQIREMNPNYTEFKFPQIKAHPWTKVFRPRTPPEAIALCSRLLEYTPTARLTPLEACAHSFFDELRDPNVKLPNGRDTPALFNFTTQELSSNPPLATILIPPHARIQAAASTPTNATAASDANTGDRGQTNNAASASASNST
Sequence of Interleukin-1 receptor-associated kinase 4 (Q9NWZ3 whole entry): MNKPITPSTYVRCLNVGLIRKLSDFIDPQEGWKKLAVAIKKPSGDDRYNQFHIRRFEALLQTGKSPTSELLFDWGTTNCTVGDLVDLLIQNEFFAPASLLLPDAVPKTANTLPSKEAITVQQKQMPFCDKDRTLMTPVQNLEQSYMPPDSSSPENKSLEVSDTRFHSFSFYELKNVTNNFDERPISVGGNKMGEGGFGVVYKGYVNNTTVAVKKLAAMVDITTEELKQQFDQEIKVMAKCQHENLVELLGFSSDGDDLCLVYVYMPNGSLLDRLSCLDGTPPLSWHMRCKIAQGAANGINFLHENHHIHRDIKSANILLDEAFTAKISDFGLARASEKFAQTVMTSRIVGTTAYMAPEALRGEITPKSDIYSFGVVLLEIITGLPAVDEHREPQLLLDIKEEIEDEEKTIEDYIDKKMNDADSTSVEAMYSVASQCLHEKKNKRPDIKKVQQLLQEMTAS

CC(C)(O)CNc1cc(-c2c[nH]c3ncccc23)cc(Cl)n1
Ki [1]: 0.316 µM (active) | Ki [2]: 2.51 µM (active) | Ki [3]: 0.002 µM (active) | Ki [4]: 1 µM (active) | Ki [5]: 0.126 µM (active) | Ki [6]: 0.316 µM (active) | Ki [7]: 0.00501 µM (active)

Cc1ccc(NC(=O)c2ccccc2NS(=O)(=O)c2ccc(Cl)s2)cc1S(=O)(=O)N1CCOCC1
IC50 [8]: 9.12 µM (active) | IC50 [9]: 7.23 µM (active)

CCOC(=O)c1ccc2[nH]c(C)c(C)c2c1
IC50 (Orexin receptor type 2 [10]): 13.5 µM (inactive) | IC50 [11]: 5.45 µM (active) | IC50 [12]: > 49.8 µM (inactive) | IC50 [13]: 20.2 µM (inactive) | IC50 (CHO-K1): > 66.3 µM (inactive) | IC50 (Orexin receptor type 2 [14]): 18.8 µM (inactive)

COCC(C)N1CCC(Oc2cccc(C(=O)NCCc3ccccc3)c2)CC1 (configuration not stated)
IC50 [8]: 7.46 µM (active) | IC50 [9]: 4.22 µM (active)

CCOC(=O)c1c(NC(=O)/C=C/C(=O)O)sc(C)c1-c1ccc(C(C)(C)C)cc1
IC50 [15]: 17.4 µM (inactive) | AC50 [16]: 32.8 µM (active) | EC50 [17]: > 60 µM (not active) | IC50 (Genome polyprotein): 25.6 µM (active) | EC50 [18]: 5.31 µM (active) | EC50 [19]: 3.42 µM (active) | AC50 (INS1): 4.33 µM (active) | IC50 (Large T antigen): 20.8 µM (active) | CC50 (Vero): 10.6 µM (active)

O=C(Nc1nnc(-c2ccccc2)o1)c1cc(-c2cccs2)nc2ccccc12
IC50 (Orexin receptor type 2 [10]): > 50 µM (inactive) | IC50 [11]: 6.15 µM (active) | IC50 [20]: 19.5 µM (active) | IC50 [21]: 6.82 µM (active) | IC50 [12]: 43.7 µM (inactive) | CC50 [22]: 38.7 µM (active) | IC50 [13]: 30.4 µM (inactive) | IC50 (CHO-K1): > 66.2 µM (inactive) | IC50 (Orexin receptor type 2 [14]): 8.5 µM (active) | EC50 [23]: > 150 µM (inconclusive) | EC50 [24]: 1.15 µM (active)
